Measurements as given in US12324845B2, “Ligands for imaging cardiac innervation” (Lantheus Medical Imaging, Inc., priority 2006, dated 2025).
Where a name gives a salt, the structure may show the parent alone.

What follows are compounds tested against T1, human norepinephrine transporter (Homo sapiens, UniProt P23975) (assay: Norepinephrine Transporter Binding Assay ([3H]desipramine displacement, MDCK cell membranes)). Conditions: MDCK cell membrane preparation expressing human NET; [3H]desipramine 2 nM; 2 h on ice; triplicate.
T1 construct: purchased Perkin-Elmer; host or cells: MDCK cells (membrane preparation)
Method: Unless otherwise stated, all reactions were conducted under an inert atmosphere of dry nitrogen. Indicated temperatures refer to those of the reaction bath, while ambient laboratory temperature is noted as 22° C. Anhydrous dimethylformamide (DMF), dimethylsulfoxide (DMSO), acetonitrile (MCCN), pyridine, triethylamine (TEA), and diisopropylethylamine (DIEA) were obtained from Aldrich in SureSeal® bottles. Absolute ethanol was obtained from Quantum Chemical Corp. Merck silica gel, grade 9385, 230-400 mesh, 60 Å was used for flash chromatography. Ethyl acetate (EtOAc), chloroform (CHCl3), methanol (MeOH), HPLC grade acetonitrile (MeCN), dichloromethane (DCM), ethyl ether, acetone, sodium hydroxide (NaOH), and hydrochloric acid (HCl) were obtained from Baker. 1-Trityl-1H-imidazole-2-amine was prepared according to a published procedure (U.S. Pat. No. 6,130,231, incorporated by reference in its entirety). 1-Bromo-2-fluoroethane was purchased from Alfa Aesar. 3-Methoxy-4-fluorobenzonitrile was purchased from TCI. MDCK cell membranes expressing human norepinephrine transporter, and [^3H]desipramine were purchased from Perkin-Elmer. [^18F]NaF was obtained from PETNET Pharmaceutical Services (Cummings Park, Woburn, MA) on a MP1 anion exchange resin (BioRad) cartridge. Other reagents were obtained from Lancaster Synthesis, Inc., Sigma-Aldrich Chemical Co, or Fluka Chemical Corp.
Inhibitors to be tested were dissolved in incubation buffer (50 mM Tris-HCl, 10% sucrose, pH 7.4) at appropriate dilutions. The inhibitor solutions were added to the wells of a microtiter plate (40 μL/well) in triplicate. Each well of test agent (and appropriate control wells) was treated with a mixture of MDCK cell membrane preparation (22.4 μg of membrane) expressing human norepinephrine transporter (Bmax=3.7 pmol norepinephrine transporter/mg protein), and [^3H]desipramine (2 nM, 64.8 Ci/mmol) in a total volume of 0.2 mL. The resulting mixtures were incubated for 2 h on ice. A 96 well GF/C filter plate was presoaked with coating buffer (0.5% polyvinylpyrrolidine and 0.1% Tween 20) for 2 h at room temperature. The presoaked filter plate was washed with incubation buffer (6×0.2 mL). The NET reactions were transferred to the coated filter plate and filtered. The filter plate was washed (6×0.2 mL) with ice cold wash buffer (50 mM Tris-HCl, 0.9% NaCl, pH 7.4). The plate was dried overnight, incubated briefly with 25 μL scintillant, and read on a Micro Beta plate reader.

T1 sequence (P23975 whole entry): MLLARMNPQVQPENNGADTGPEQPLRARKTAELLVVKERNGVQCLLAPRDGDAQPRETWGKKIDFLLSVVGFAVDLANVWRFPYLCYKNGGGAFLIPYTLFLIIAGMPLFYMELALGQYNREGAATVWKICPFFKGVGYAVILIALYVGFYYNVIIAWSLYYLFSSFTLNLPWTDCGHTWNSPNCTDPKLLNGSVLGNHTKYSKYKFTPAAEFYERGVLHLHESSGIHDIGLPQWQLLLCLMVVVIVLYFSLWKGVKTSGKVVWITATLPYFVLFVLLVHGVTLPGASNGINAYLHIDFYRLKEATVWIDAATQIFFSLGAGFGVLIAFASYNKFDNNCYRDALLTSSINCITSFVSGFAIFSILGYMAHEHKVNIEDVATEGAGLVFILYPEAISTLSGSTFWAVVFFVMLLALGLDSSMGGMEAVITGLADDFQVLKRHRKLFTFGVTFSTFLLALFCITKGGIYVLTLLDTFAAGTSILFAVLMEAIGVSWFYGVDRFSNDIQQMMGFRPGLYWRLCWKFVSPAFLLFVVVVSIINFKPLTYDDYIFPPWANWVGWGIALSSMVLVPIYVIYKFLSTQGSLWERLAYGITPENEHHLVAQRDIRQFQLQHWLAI

**Q.** With Fc1ccc(CNc2ncc[nH]2)cc1C(F)(F)F [Example 1, N-(4-Fluoro-3-(trifluoromethyl)benzyl)-1H-imidazol-2-amine] as the compound, how does the “NET Affinity” value read?
**A.** 17.94 µM

**Q.** Which “NET Affinity” value does the source give for Cl.N=C(N)NCC(O)c1ccc(OCCF)cc1 (centres unmarked) [Example 2, 1-(2-(4-(2-fluoroethoxy)phenyl)-2-hydroxyethyl)guanidinium Chloride] here?
**A.** <20 µM

**Q.** For Cl.N=C(N)NCCc1ccc(OCCF)cc1 [Example 3, 1-(4-(2-Fluoroethoxy)phenethyl)guanidinium Chloride], which “NET Affinity” value is on record?
**A.** 1.45 µM

**Q.** With Cl.N=C1NCC(c2ccc(OCCF)cc2)N1 (centres unmarked) [Example 4, 4-(4-(2-Fluoroethoxy)phenyl)imidazolidin-2-iminium Chloride] as the compound, how does the “NET Affinity” value read?
**A.** 7.27 µM

**Q.** Which “NET Affinity” value does the source give for Cl.N=C(N)N/C=C/c1ccc(OCCF)cc1 [Example 5, (E)-1-(4-(2-Fluoroethoxy)styryl)guanidinium Chloride] here?
**A.** 4.10 µM

**Q.** For CC(N)C(O)c1cc(O)c(OCCF)c(O)c1.Cl (centres unmarked) [Example 6, 5-(2-Amino-1-hydroxypropyl)-2-(2-fluoroethoxy)benzene-1,3-diol Hydrochloride], which “NET Affinity” value is on record?
**A.** 102.8 µM

**Q.** Which “NET Affinity” value does the source give for COc1cc(CNC(=N)N)ccc1F.Cl [Example 7, 3-Methoxy-4-fluorobenzylguanidinium Chloride] here?
**A.** 20.71 µM

**Q.** Which “NET Affinity” value does the source give for Cl.N=C(N)NCc1ccc(OCCF)c(Br)c1 [Example 8, 3-Bromo-4-(2-fluoroethoxy)benzylguanidinium Chloride] here?
**A.** 5.65 µM

**Q.** Which “NET Affinity” value does the source give for N=C(N)NCc1cccc(OCCF)c1 [Example 9, 3-(2-Fluoroethoxy)benzylguanidinium Trifluoroacetate] here?
**A.** 4.36 µM

**Q.** N=C(N)NCCc1ccc(OCCF)c(Cl)c1 [Example 10, 3-Chloro-4-(2-fluoroethoxy)phenethylguanidinium Trifluoroacetate] was tested. Which “NET Affinity” value did it give?
**A.** 1.80 µM

**Q.** With CNC(C)C(O)c1ccc(F)c(O)c1 (centres unmarked) [Example 11, 1-(4-Fluoro-3-hydroxyphenyl)-1-hydroxy-N-methylpropan-2-aminium Trifluoroacetate] as the compound, how does the “NET Affinity” value read?
**A.** 54.85 µM
